Source: article PMC6838683, “Discovery of Human Signaling Systems: Pairing Peptides to G Protein-Coupled Receptors” (Cell, 2019)
Positions of bridges follow the written chain, without caps; N, C: chain ends. Residues, ends and D or L forms follow the SMILES beside them.

Tests used:
Assay type in all cases: cell-based
HA-OGR1 (GPR68) = target: T1, HA-OGR1 (GPR68) (Homo sapiens, UniProt Q15743); test: Ca2+ mobilization assay (Fluo-4); settings: GPR68, data from resynthesized peptide, mean, SEM and n; for Emax: read-out: Emax, Ca2+ mobilization (% iono); for EC50: read-out: pEC50, Ca2+ mobilization (% iono) (converted)
T1 construct: HA; expressed in transfected cells
T1 sequence (Q15743 whole entry): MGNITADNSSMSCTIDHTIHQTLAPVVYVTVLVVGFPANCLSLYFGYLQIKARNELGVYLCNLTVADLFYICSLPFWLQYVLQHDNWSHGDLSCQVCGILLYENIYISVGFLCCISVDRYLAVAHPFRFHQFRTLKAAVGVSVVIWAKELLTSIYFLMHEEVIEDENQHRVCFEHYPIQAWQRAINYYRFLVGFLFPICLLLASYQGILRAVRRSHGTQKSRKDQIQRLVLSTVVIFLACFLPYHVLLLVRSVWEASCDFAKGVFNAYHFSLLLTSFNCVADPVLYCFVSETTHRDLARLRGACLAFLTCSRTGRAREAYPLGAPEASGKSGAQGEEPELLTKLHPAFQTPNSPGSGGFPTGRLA
Description: Peptide-dependent Ca^2+ mobilization responses were measured in HEK293 stable cell lines (HA-OGR1 (GPR68) and vector pcDNA) ([Saxena et al., 2012]) that were seeded in 96-well plates (1 × 10^5 cells/well) and cultured at 37°C with 5% CO2 to near confluence in DMEM with 10% FBS (Corning). Six hours prior to assay, medium was changed to pH 8.0 or pH 7.4 HAM’s F12 Nutrient Mixture (GIBCO) without FBS and transferred to a 37°C incubator without CO2. One hour prior to stimulation, cells were incubated in pH 8.0 or pH 7.4 HBSS with Ca^2+ and Mg^2+ (GIBCO), supplemented with 15 mM HEPES, 2 μM Fluo-4 AM (Invitrogen) and 1.5 mM probenecid ([…] to prevent Fluo-4 efflux) as described previously ([Pera et al., 2018]). Indicated peptides were pipetted using an automated system and emission signal was recorded at 525 nm after excitation at 485 nm using Flex Station III (Molecular Devices). Ca^2+ mobilization responses were determined by subtracting basal fluorescence from the net peak of agonist-induced fluorescence. Ionomycin (1 μM) was used to calculate the maximum Ca^2+ signal to normalize peptide-mediated responses.

GPR68 [1] = target: T2, GPR68 (Homo sapiens, UniProt Q15743); test: Real-time receptor internalization (TR-FRET), concentration-response; design: hIL-2Ra signal peptide (N); expressed in transfected cells; settings: GPR68, mean, SEM and n
Summary of the method: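 Doxycycline-induced SNAP-tagged receptor cells had surface receptors labelled with Lumi4-Tb and fluorescein-O-acetic acid added. TR-FRET internalization after peptide addition was recorded for 60 min at 37°C (ex 340, em 520/615 nm). Area under the curve, normalized to plate average, gave concentration-response curves.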
Target sequence in this assay (Q15743 2-365 limits assumed): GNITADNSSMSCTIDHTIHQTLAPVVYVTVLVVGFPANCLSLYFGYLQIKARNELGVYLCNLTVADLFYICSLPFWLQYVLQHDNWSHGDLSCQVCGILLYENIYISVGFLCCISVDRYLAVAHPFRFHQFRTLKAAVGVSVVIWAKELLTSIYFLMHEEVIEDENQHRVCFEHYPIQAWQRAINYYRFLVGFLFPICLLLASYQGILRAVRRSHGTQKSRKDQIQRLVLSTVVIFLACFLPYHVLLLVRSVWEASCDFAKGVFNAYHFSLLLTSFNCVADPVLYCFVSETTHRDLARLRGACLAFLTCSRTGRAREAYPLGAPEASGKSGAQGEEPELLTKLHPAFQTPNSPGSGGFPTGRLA

GPR68 [2] = target: T2, GPR68; test: GloSensor cAMP assay (Gs), allosteric operational model fitting; design: expressed in transfected cells; host or cells: HEK293T, transient (PEI), co-transfected with GloSensor cAMP plasmid
Description: GPR68-mediated cAMP signaling was measured using GloSensor cAMP assays as published previously ([Huang et al., 2015], [Yu et al., 2019]) with modifications as indicated below. Calcium- and magnesium-free HBSS was supplemented with different organic buffer reagents for different pH solutions, 20 mM 2-(N-morpholino)ethanesulfonic acid (MES, Alfa Aesar) for pH 6.00 – 6.70, 20 mM 4-(2-hydroxyethyl)-1-piperazineethanesulfonic acid (HEPES, Fisher) for pH 6.80 – 8.20, and 20 mM (tris(hydroxymethyl)methylamino)propanesulfonic acid (TAPS) for pH 8.30 – 8.60. The phosphodiesterase (PDE) inhibitor Ro 20-1724 (10 μM final, Cayman Chemical) was included in pH buffers to eliminate potential effect of PDE […]. HEK293T cells were transfected with a modified polyethylenimine (PEI, Polysciences) transfection method ([Longo et al., 2013]). For a 15-cm dish of HEK293T cells with 25 mL growth medium, 8 μg receptor DNA and 8 μg GloSensor DNA (Promega) were mixed in 1 mL of Opti-MEM medium followed by addition of 80 μL PEI reagents. The mixture was added to cells after 20 min incubation at room temperature. Overnight transfected cells were plated in poly-L-lysine (Sigma) coated 384-well white clear bottom plates (Greiner Bio-One, #781098) using DMEM (Corning) + 1% dialyzed FBS (Omega Scientific) for at least 6 h (up to 24 h). Cells were removed of medium before receiving 20 μL/well of 3.5 mM luciferin (Goldbio) prepared in assay buffer (HBSS, 20 mM TAPS, pH 8.40, 10 μM Ro 20-1724) for 1 h at 37°C. Luciferin loading solutions were removed and premixed drug solutions at desired pH conditions were added to cells (25 μL/well). Luminescence was measured 25-30 min after drug application. Results were normalized (basal and maximum responses in the absence of modulator were set to be 0 and 100%) and pooled for analysis using GraphPad Prism.
All of the other parameters, including allosteric affinity cooperativity (α), allosteric modulator binding affinity KB, orthosteric agonist (protons) efficacy τA, system maximal response, and slope factor n were all globally shared for all datasets for each modulator. […] We therefore used an allosteric index, log(αβ/KB) ([Kenakin, 2017a]), which contains both allosteric binding affinity and cooperativity, to quantify the overall allosteric activity.
Target sequence in this assay (Q15743 whole entry): as the sequence (Q15743 whole entry) above

[3] = GPR68, pH 7.4, tested as PAM, data from resynthesized peptide, mean, SEM and n

Compound | Emax (HA-OGR1 (GPR68)) [%] | EC50 (HA-OGR1 (GPR68)) [µM] | Emax, Internalization (AUC) (GPR68 [1]) | EC50 (GPR68 [1]; read-out: pEC50, Internalization (AUC) (converted)) [µM] | Emax, cAMP (fold over basal, pH 7.4) (GPR68 [2]; [3]) [fold over basal] | EC50 (GPR68 [2]; GPR68, pH 7.4, tested as PAM, data from resynthesized peptide, mean, SEM and n, read-out: pEC50, cAMP (fold over basal, pH 7.4) (converted)) [µM] | pEC50, Internalization (AUC) (GPR68 [1]) | EC50 (GPR68 [2]) [µM]
CC[C@H](C)[C@H](NC(=O)[C@H](CCCNC(=N)N)NC(=O)[C@H](C)NC(=O)CNC(=O)[C@H](CCCCN)NC(=O)[C@H](CCCNC(=N)N)NC(=O)[C@@H](NC(=O)[C@H](C)NC(=O)[C@@H]1CSSC[C@H](NC(=O)[C@H](CCSC)NC(=O)[C@@H]2CCCN2C(=O)[C@@H](NC(=O)[C@H](CCC(N)=O)NC(=O)CNC(=O)[C@@H](N)Cc2ccc(O)cc2)C(C)C)C(=O)N[C@@H](CC(=O)O)C(=O)N[C@@H](C)C(=O)NCC(=O)N[C@@H](CCC(=O)O)C(=O)N[C@@H](CCC(N)=O)C(=O)N1)C(C)C)C(N)=O [CART(42-89)_(9-28)] (H-YGQVPMCDAGEQCAVRKGARI-NH2; disulfide 7-13; N-terminus assumed) | 79.3 | 3.31 | 9.4 | 3.55 | 25.2 | 4.57 |  | 
CC(C)C[C@H](NC(=O)[C@@H]1CCCN1C(=O)[C@H](Cc1ccccc1)NC(=O)[C@H](C)NC(=O)[C@H](CCC(=O)O)NC(=O)[C@H](C)NC(=O)[C@H](CO)NC(=O)[C@H](CCC(=O)O)NC(=O)[C@H](CC(N)=O)NC(=O)[C@H](CCC(=O)O)NC(=O)[C@H](C)NC(=O)[C@@H](NC(=O)[C@H](CC(N)=O)NC(=O)[C@@H]1CCCN1C(=O)[C@H](Cc1ccc(O)cc1)NC(=O)[C@@H](NC(=O)[C@H](CCCCN)NC(=O)[C@@H](NC(=O)[C@@H]1CCCN1C(=O)[C@H](CCCNC(=N)N)NC(=O)[C@@H](N)CCCNC(=N)N)C(C)C)C(C)C)C(C)C)C(=O)N[C@@H](CCC(=O)O)C(=O)N[C@@H](Cc1ccccc1)C(=O)O [Corticotropin_(17-40)] (H-RRPVKVYPNVAENESAEAFPLEF-OH; N-terminus and C-terminus assumed) | 63.3 | 1.82 | 4.7 |  | 24.2 |  | Response >1uM | 7.41
